According to patent US20240358722A1, “METHODS OF ADMINISTERING FEDRATINIB” (Impact Biomedicines, Inc., priority 2021, published 2024):
Counter-ions that a name gives are not always drawn.

What was measured:
[1] = Effect of meals on fedratinib pharmacokinetics; type: in vivo, human; details: high-fat, high-calorie meal (approx. 815 calories, 52% fat) and low-fat, low-calorie meal (approx. 162 calories, 6% fat)
Procedure: (§1) Thus, fedratinib can be taken with or without regard to food. Moreover, the most frequently reported gastrointestinal (GI)-related treatment-emergent adverse events, such as nausea and vomiting, are less frequent in the fed state (62.5% and 16.7%,) than in the fasting state (87.5% and 66.7%) in subjects receiving a 500 mg fedratinib. Therefore, administration in the fed state, i.e., with nutritional supplement can reduce the incidence of nausea and vomiting.

[2] = Phase 1 crossover relative bioavailability study, Part 2: fedratinib plasma PK; type: in vivo, human; details: for AUC0-∞: geometric mean, one participant excluded (pAUCe >20%); for AUC0-t / Cmax: n = 30, geometric mean, plasma
Procedure: (§2) An open-label, single-site, 2-part crossover study will be conducted in healthy adult subjects. This study will evaluate the RBA of 400 mg fedratinib when administered orally as contents of capsules dispersed in a nutritional supplement or via NG tube or administered orally as intact capsules with a nutritional supplement as a divided dose (200 mg BID) in comparison to intact capsules with a nutritional supplement. Each study part will consist of a randomized, multiple-sequence, open-label design. The study parts can be run in any order or in parallel. Subjects may participate in 1 part only. Each study part will consist of Screening, a Treatment phase (including baseline), and a Follow-up phone call. There will be a washout period of at least 12 days between each dose of fedratinib.
Part 2 will consist of a randomized, 3-period, 6-sequence, open-label design. Subjects will be screened for eligibility. Subjects who meet all inclusion criteria and none of the exclusion criteria will return to the study center on Day-1 for protocol-specified assessments and the start of domiciling; subjects will remain domiciled at the study center throughout all study periods.
(§3) On the evening before each dosing, all subjects will begin an overnight fast of at least 10 hours prior to dosing. No food or beverages (except water and any nutritional supplement administered with IP) will be allowed for at least 4 hours after dosing. Water is allowed as desired except for 1 hour before and 1 hour after each dosing. Each dose, with the exception of Treatment 2B, will be administered orally with approximately 240 mL noncarbonated, room temperature water. Dose modifications or interruptions are not permissible in this study.
Each subject will receive the following treatments across 3 study periods: • Treatment 2A=oral administration of a single 400-mg dose of fedratinib (4×100-mg capsules) with a nutritional supplement (reference) • Treatment 2B=a single 400-mg dose of fedratinib, administered via NG tube as contents from 4×100-mg capsules dispersed into a nutritional supplement (test) • Treatment 2C=oral administration of 400-mg fedratinib with a nutritional supplement, given as a divided dose (i.e., BID [2×100-mg capsules each]) (test)
Prior to administration of Treatment 2B, a nasogastric tube will be placed and an X-ray(s) will be performed to confirm correct placement of the nasogastric tube. Following administration of Treatment 2B, the nasogastric tube will be flushed with a volume of sterile water for irrigation equal to approximately 60 mL. Lidocaine gel or a suitable therapeutic equivalent may be used to reduce participant discomfort during the nasogastric tube insertion procedure. The timing from start of the nasogastric tube placement to dosing will be up to 4 hours. Actual time of dose administration will be referred to as “0 hour.”
(§4) All planned doses will be administered with a commercially available nutritional supplement (e.g., Ensure Plus® or Boost Plus®). The chosen nutritional supplement will be used throughout the study. The volume of nutritional supplement to be administered with each dose will be (e.g., approximately 180 mL).
(§5) Blood samples (approximately 3 mL each) for the measurement of fedratinib concentrations in plasma will collected at the following time points: • Treatment 1A, 1B, 2A and 2B: pre dose (0 hour) and at 0.5, 1, 1.5, 2, 3, 4, 6, 8, 12, 24, 48, 72, 120, 168, 192, and 240 hours post dose. • Treatment 2C: pre dose (0 hour) and at 0.5, 1, 1.5, 2, 3, 4, 6, 8, 12 (pre dose of the second dose), 12.5, 13, 13.5, 14, 15, 16, 18, 24, 48, 72, 120, 168, 192, and 240 hours post dose of the first dose.
(§6) Fedratinib plasma PK concentrations will be measured using a validated liquid chromatography tandem mass spectrometry assay
Fedratinib plasma PK parameters will be calculated using noncompartmental methods. […]

[3] = Phase 1 crossover relative bioavailability study, Part 1: fedratinib plasma PK; type: in vivo, human; details: for AUC0-t / Cmax: plasma
Procedure: as §2
Part 1 will consist of a randomized, 2-period, 2-sequence, open-label design. Subjects will be screened for eligibility. Subjects who meet all inclusion criteria and none of the exclusion criteria will return to the study center on Day-1 for protocol-specified assessments and the start of domiciling; subjects will remain domiciled at the study center throughout both study periods.
as §3
Each subject will receive the following treatments across 2 study periods: • Treatment 1A=oral administration of a single 400-mg dose of fedratinib (4×100-mg capsules) with a nutritional supplement (reference) • Treatment 1B=oral administration of a single 400-mg dose of fedratinib with contents of 4×100-mg capsules dispersed in a nutritional supplement (test)
as §4, §5, §6
Fedratinib plasma PK parameters will be calculated using noncompartmental methods. The following key PK parameters will be estimated as allowed by the data: • Maximum observed plasma concentration (Cmax) • Area under the plasma concentration-time curve (AUC) from time zero to the last
To estimate the RBA for Treatments 1B in comparison with Treatment 1A, an ANOVA with treatment, period, and sequence as fixed effects, and subject nested within sequence as a random effect will be performed on the natural log-transformed Cmax, AUC (0-T), and AUC (INF). The geometric means along with ratios of the geometric means (test/reference) and associated 90% confidence intervals will be presented.

[4] = system: patient-derived cell lines expressing JAK2V617F and cells engineered to express WT JAK2 or JAK2V617F; details: cited from earlier work
[5] = Safety and tolerability in the Phase 1 study; type: in vivo, human; details: healthy adult subjects, fedratinib 400 mg, Parts 1 and 2
Text: During the study, blood samples will be collected at prespecified times for PK. Subject safety will be monitored throughout the study. The study will be conducted in compliance with the International Council on Harmonization (ICH) of Technical Requirements for Registration of Pharmaceuticals for Human Use/Good Clinical Practice (GCP) and applicable regulatory requirements.

[6] = Population pharmacokinetics analysis of cumulative data from 452 patients; type: in vivo, human; details: age 20 to 95 years, body weight 40 to 135 kg
JAK2V617F-driven MPNs = details: mouse models of JAK2V617F-driven MPNs; cited from earlier work
STAT3/STAT5 = details: patient-derived cell lines expressing JAK2V617F and cells engineered to express WT JAK2 or JAK2V617F; cited from earlier work
[7] = GI-related treatment-emergent adverse events, fed vs fasting state; type: in vivo, human; details: subjects receiving 500 mg fedratinib
Procedure: as §1

[8] = Treatment 2A: fedratinib 400 mg oral capsules with nutritional supplement
[9] = Treatment 2B (via NG tube) vs Treatment 2A (capsules orally), 400 mg single dose
[10] = Treatment 2B: fedratinib 400 mg in supplement via NG tube
[11] = Treatment 2C (divided dose) vs Treatment 2A (single dose)
[12] = Treatment 2C: fedratinib 2 × 200 mg capsules, divided dose
[13] = Treatment 1A: fedratinib 400 mg oral capsules with nutritional supplement, n = 27, geometric mean
[14] = Treatment 1B (dispersed in nutritional supplement) vs Treatment 1A (intact capsules), 400 mg single dose
[15] = Treatment 1B: fedratinib 400 mg dispersed in supplement, oral, n = 27, geometric mean

For `Cc1cnc(Nc2ccc(OCCN3CCCC3)cc2)nc1Nc1cccc(S(=O)(=O)NC(C)(C)C)c1` [fedratinib, N-tert-butyl-3-[(5-methyl-2-{[4-(2-pyrrolidin-1-ylethoxy)phenyl]amino}pyrimidin-4-yl)amino] benzenesulfonamide dihydrochloride monohydrate], the “effect on the pharmacokinetics of fedratinib of administration with a meal” value [1] was “No clinically meaningful effect”, the “differences in exposure to fedratinib compared to a single dose of 4×100 mg capsules administered orally” value ([2]; 400 mg, healthy adult participants, with nutritional supplement, via NG tube, or divided capsule dose) was “no significant differences” and the “AUC0-∞” value [2, 8] was 24963 ng·h/mL. The AUC0-t [2, 8] was 22683 ng·h/mL, the Cmax [2, 8] was 1388 ng/mL and the “ratio of geometric means between test and reference, AUC (0-T)” value [2, 9] was 84%. For the same compound, the “ratio of geometric means between test and reference, AUC (INF)” value [2, 9] was 85%, the “ratio of geometric means between test and reference, Cmax” value [2, 9] was 90% and the “AUC0-∞” value [2, 10] was 21334 ng·h/mL. The AUC0-t [2, 10] was 19111 ng·h/mL, the Cmax [2, 10] was 1246 ng/mL and the “ratio of geometric means between test and reference, AUC (0-T)” value [2, 11] was 84%. The “ratio of geometric means between test and reference, AUC (INF)” value [2, 11] was 85%, the “ratio of geometric means between test and reference, Cmax” value [2, 11] was 46% and the “AUC0-∞” value [2, 12] was 21304 ng·h/mL. For the same compound, the AUC0-t [2, 12] was 19002 ng·h/mL, the Cmax [2, 12] was 641.4 ng/mL and the “AUC0-∞” value ([3]; Treatment 1A: fedratinib 400 mg oral capsules with nutritional supplement, geometric mean, one participant excluded (pAUCe >20%)) was 22260 ng·h/mL. The AUC0-t [3, 13] was 20127 ng·h/mL, the Cmax [3, 13] was 1319 ng/mL and the “ratio of geometric means (test/reference), AUC (0-T)” value [3, 14] was 102%. The “ratio of geometric means (test/reference), AUC (INF)” value [3, 14] was 103%, the “ratio of geometric means (test/reference), Cmax” value [3, 14] was 108% and the “AUC0-∞” value [3, 15] was 22838 ng·h/mL. The AUC0-t [3, 15] was 20598 ng·h/mL, the Cmax [3, 15] was 1425 ng/mL and the apoptosis [4] was “increased”. The cell proliferation [4] was “inhibited”, the “safety signals or treatment-emergent serious adverse events” value [5] was “No new safety signals or treatment-emergent serious adverse events were reported” and the “effect on fedratinib PK of age, race, sex, body weight, mild or moderate hepatic impairment, mild renal impairment” value [6] was “no clinically meaningful effect”. For the same compound, the “disease-associated symptoms, including leukopenia, anemia, splenomegaly, and fibrosis” value (JAK2V617F-driven MPNs) was “improved”, the “phosphorylation of STAT⅗” value (JAK2V617F-driven MPNs) was “blocked” and the survival (JAK2V617F-driven MPNs) was “increased”. For the same compound, the “phosphorylation of STAT3/STAT5” value (STAT3/STAT5) was “reduced”, the “frequency of nausea (GI-related treatment-emergent adverse event)” value ([7]; fasting state) was 87.5% and the “frequency of vomiting (GI-related treatment-emergent adverse event)” value ([7]; fasting state) was 66.7%. The “frequency of nausea (GI-related treatment-emergent adverse event)” value ([7]; fed state) was 62.5% and the “frequency of vomiting (GI-related treatment-emergent adverse event)” value ([7]; fed state) was 16.7%.
